pIC50: −log10 of the molar value.
biological target: GCN2 (Homo sapiens (Human), UniProt Q9P2K8); experiment: GCN2 Biochemical Assay (TR-FRET, GFP-eIF2S1 substrate phosphorylation); conditions: read-out: IC50 (GCN2 Inhibitory Activity)
Procedure, shortened: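 In-house GCN2 (1.6 nM 2× stock) phosphorylates GFP-eIF2S1 (50 nM 2× stock) with ATP (0.2 mM 2× stock) and tRNA, pH 7.5, 70 min at room temperature; 10-point 3.16-fold compound series. TR-FRET detection with Tb-anti-phospho antibody, 2–3 h, Ex 340/Em 490/520 nm; artifact plate spiked with phospho-substrate.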

Chain of GCN2 (Q9P2K8 whole entry): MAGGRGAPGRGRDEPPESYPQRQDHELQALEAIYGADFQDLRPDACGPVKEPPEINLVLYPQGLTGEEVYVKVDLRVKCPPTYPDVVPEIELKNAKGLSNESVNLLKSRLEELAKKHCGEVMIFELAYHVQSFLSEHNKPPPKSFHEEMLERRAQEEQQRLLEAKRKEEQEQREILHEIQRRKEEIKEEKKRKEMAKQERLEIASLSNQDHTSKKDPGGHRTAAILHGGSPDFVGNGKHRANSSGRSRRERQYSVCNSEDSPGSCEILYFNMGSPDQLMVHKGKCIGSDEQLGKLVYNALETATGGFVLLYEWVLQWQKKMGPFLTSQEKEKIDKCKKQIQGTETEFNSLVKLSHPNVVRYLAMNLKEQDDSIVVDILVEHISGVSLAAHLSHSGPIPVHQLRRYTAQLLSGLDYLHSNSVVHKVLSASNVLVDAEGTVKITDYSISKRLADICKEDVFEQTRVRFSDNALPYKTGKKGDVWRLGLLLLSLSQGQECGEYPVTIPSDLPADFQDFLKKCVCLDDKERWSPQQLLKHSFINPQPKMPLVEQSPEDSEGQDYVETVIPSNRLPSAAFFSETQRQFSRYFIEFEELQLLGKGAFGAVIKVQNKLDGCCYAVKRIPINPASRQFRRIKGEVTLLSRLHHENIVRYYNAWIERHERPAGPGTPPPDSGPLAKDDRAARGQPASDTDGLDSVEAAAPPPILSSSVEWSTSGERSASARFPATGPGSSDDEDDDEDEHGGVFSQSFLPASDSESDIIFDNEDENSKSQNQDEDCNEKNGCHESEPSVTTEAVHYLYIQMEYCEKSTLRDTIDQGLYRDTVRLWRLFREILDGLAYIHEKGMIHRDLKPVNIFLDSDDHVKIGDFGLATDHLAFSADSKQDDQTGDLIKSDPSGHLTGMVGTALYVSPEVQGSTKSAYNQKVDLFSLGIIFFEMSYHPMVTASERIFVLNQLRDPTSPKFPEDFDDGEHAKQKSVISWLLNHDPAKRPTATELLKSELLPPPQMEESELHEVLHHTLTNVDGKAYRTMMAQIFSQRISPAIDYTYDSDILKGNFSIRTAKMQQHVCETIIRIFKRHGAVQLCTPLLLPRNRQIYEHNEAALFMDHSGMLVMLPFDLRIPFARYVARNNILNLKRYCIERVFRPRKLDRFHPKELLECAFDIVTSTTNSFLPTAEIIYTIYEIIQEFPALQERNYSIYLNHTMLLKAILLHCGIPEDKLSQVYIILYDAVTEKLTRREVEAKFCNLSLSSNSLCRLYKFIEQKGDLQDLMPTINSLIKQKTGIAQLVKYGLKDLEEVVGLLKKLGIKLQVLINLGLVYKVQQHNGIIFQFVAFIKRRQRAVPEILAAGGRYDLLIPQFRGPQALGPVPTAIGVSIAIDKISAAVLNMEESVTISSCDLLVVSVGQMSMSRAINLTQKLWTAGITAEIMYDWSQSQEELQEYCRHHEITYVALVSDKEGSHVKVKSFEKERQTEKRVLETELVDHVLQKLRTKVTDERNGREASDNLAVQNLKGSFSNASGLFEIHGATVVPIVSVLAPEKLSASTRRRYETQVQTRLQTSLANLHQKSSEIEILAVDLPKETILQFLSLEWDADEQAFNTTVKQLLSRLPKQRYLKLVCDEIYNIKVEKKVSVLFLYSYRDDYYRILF

Compound | pIC50
Cc1cnc(Nc2cc(C)n(C)n2)nc1-c1c[nH]c2c(NC(=O)CN3CC[C@H](Oc4nc(N)nc(N5CCCC5)n4)C3)cccc12 [Example 139, (S)-2-(3-((4-amino-6-(pyrrolidin-1-yl)-1,3,5-triazin-2-yl)oxy)pyrrolidin-1-yl)-N-(3-(2-((1,5-dimethyl-1H-pyrazol-3-yl)amino)-5-methylpyrimidin-4-yl)-1H-indol-7-yl)acetamide] | > 8.00
Cc1cnc(Nc2cc(C)n(C)n2)nc1-c1c[nH]c2c(NC(=O)CN3CC[C@H](Oc4cc(N)ncn4)C3)cccc12 [Example 140, (S)-2-(3-((6-aminopyrimidin-4-yl)oxy)pyrrolidin-1-yl)-N-(3-(2-((1,5-dimethyl-1H-pyrazol-3-yl)amino)-5-methylpyrimidin-4-yl)-1H-indol-7-yl)acetamide] | > 8.00
CNc1cc(O[C@H]2CCN(CC(=O)Nc3cccc4c(-c5nc(Nc6cc(C)n(C)n6)ncc5C)c[nH]c34)C2)ncn1 [Example 141, (S)-N-(3-(2-((1,5-dimethyl-1H-pyrazol-3-yl)amino)-5-methylpyrimidin-4-yl)-1H-indol-7-yl)-2-(3-((6-(methylamino)pyrimidin-4-yl)oxy)pyrrolidin-1-yl)acetamide] | > 8.00
CCCNc1cc(O[C@H]2CCN(CC(=O)Nc3cccc4c(-c5nc(Nc6cc(C)n(C)n6)ncc5C)c[nH]c34)C2)ncn1 [Example 143, (S)-N-(3-(2-((1,5-dimethyl-1H-pyrazol-3-yl)amino)-5-methylpyrimidin-4-yl)-1H-indol-7-yl)-2-(3-((6-(propylamino)pyrimidin-4-yl)oxy)pyrrolidin-1-yl)acetamide] | > 8.00
Cc1cnc(Nc2cc(C)n(C)n2)nc1-c1c[nH]c2c(NC(=O)CN3CC[C@H](Oc4cc(NCCCN(C)C)ncn4)C3)cccc12 [Example 148, (S)-N-(3-(2-((1,5-dimethyl-1H-pyrazol-3-yl)amino)-5-methylpyrimidin-4-yl)-1H-indol-7-yl)-2-(3-((6-((3-(dimethylamino)propyl)amino)pyrimidin-4-yl)oxy)pyrrolidin-1-yl)acetamide] | > 8.00
Cc1cnc(Nc2cc(C)n(C)n2)nc1-c1c[nH]c2c(NC(=O)CN3CC[C@H](Oc4cc(NCc5ccccc5)ncn4)C3)cccc12 [Example 149, (S)-2-(3-((6-(benzylamino)pyrimidin-4-yl)oxy)pyrrolidin-1-yl)-N-(3-(2-((1,5-dimethyl-1H-pyrazol-3-yl)amino)-5-methylpyrimidin-4-yl)-1H-indol-7-yl)acetamide] | > 8.00
Cc1cnc(Nc2cc(C)n(C)n2)nc1-c1c[nH]c2c(NC(=O)CN3CC[C@H](Oc4cc(NCCc5ccccc5)ncn4)C3)cccc12 [Example 150, (S)-N-(3-(2-((1,5-dimethyl-1H-pyrazol-3-yl)amino)-5-methylpyrimidin-4-yl)-1H-indol-7-yl)-2-(3-((6-(phenethylamino)pyrimidin-4-yl)oxy)pyrrolidin-1-yl)acetamide] | 7.00 to 8.00
Cc1cnc(Nc2cc(C)n(C)n2)nc1-c1c[nH]c2c(NC(=O)CN3CC[C@H](Oc4cc(NC5CC5)ncn4)C3)cccc12 [Example 151, (S)-2-(3-((6-(cyclopropylamino)pyrimidin-4-yl)oxy)pyrrolidin-1-yl)-N-(3-(2-((1,5-dimethyl-1H-pyrazol-3-yl)amino)-5-methylpyrimidin-4-yl)-1H-indol-7-yl)acetamide] | > 8.00
Cc1cnc(Nc2cc(C)n(C)n2)nc1-c1c[nH]c2c(NC(=O)CN3CC[C@H](Oc4cc(NC5CCCCC5)ncn4)C3)cccc12 [Example 152, (S)-2-(3-((6-(cyclohexylamino)pyrimidin-4-yl)oxy)pyrrolidin-1-yl)-N-(3-(2-((1,5-dimethyl-1H-pyrazol-3-yl)amino)-5-methylpyrimidin-4-yl)-1H-indol-7-yl)acetamide] | 7.00 to 8.00
CCN(C)c1cc(O[C@H]2CCN(CC(=O)Nc3cccc4c(-c5nc(Nc6cc(C)n(C)n6)ncc5C)c[nH]c34)C2)ncn1 [Example 154, (S)-N-(3-(2-((1,5-dimethyl-1H-pyrazol-3-yl)amino)-5-methylpyrimidin-4-yl)-1H-indol-7-yl)-2-(3-((6-(ethyl(methyl)amino)pyrimidin-4-yl)oxy)pyrrolidin-1-yl)acetamide] | > 8.00
CCCN(CC)c1cc(O[C@H]2CCN(CC(=O)Nc3cccc4c(-c5nc(Nc6cc(C)n(C)n6)ncc5C)c[nH]c34)C2)ncn1 [Example 156, (S)-N-(3-(2-((1,5-dimethyl-1H-pyrazol-3-yl)amino)-5-methylpyrimidin-4-yl)-1H-indol-7-yl)-2-(3-((6-(ethyl(propyl)amino)pyrimidin-4-yl)oxy)pyrrolidin-1-yl)acetamide] | 7.00 to 8.00
Cc1cnc(Nc2cc(C)n(C)n2)nc1-c1c[nH]c2c(NC(=O)CN3CC[C@H](Oc4cc(N5CCCC5)ncn4)C3)cccc12 [Example 158, (S)-N-(3-(2-((1,5-dimethyl-1H-pyrazol-3-yl)amino)-5-methylpyrimidin-4-yl)-1H-indol-7-yl)-2-(3-((6-(pyrrolidin-1-yl)pyrimidin-4-yl)oxy)pyrrolidin-1-yl)acetamide] | > 8.00
Cc1cnc(Nc2cc(C)n(C)n2)nc1-c1c[nH]c2c(NC(=O)CN3CC[C@H](Oc4cc(N5CCC(O)C5)ncn4)C3)cccc12 (stereo partly drawn) [Example 159, N-(3-(2-((1,5-dimethyl-1H-pyrazol-3-yl)amino)-5-methylpyrimidin-4-yl)-1H-indol-7-yl)-2-((3S)-3-((6-(3-hydroxypyrrolidin-1-yl)pyrimidin-4-yl)oxy)pyrrolidin-1-yl)acetamide] | > 8.00

Next, values leading:

pIC50 | Compound
> 8.00 | Cc1cnc(Nc2cc(C)n(C)n2)nc1-c1c[nH]c2c(NC(=O)CN3CC[C@H](Oc4ncnc(N(C)C)n4)C3)cccc12 [Example 136, (S)-N-(3-(2-((1,5-dimethyl-1H-pyrazol-3-yl)amino)-5-methylpyrimidin-4-yl)-1H-indol-7-yl)-2-(3-((4-(dimethylamino)-1,3,5-triazin-2-yl)oxy)pyrrolidin-1-yl)acetamide]
> 8.00 | Cc1cnc(Nc2cc(C)n(C)n2)nc1-c1c[nH]c2c(NC(=O)CN3CC[C@H](Oc4ncnc(NC5CC5)n4)C3)cccc12 [Example 137, (S)-2-(3-((4-(cyclopropylamino)-1,3,5-triazin-2-yl)oxy)pyrrolidin-1-yl)-N-(3-(2-((1,5-dimethyl-1H-pyrazol-3-yl)amino)-5-methylpyrimidin-4-yl)-1H-indol-7-yl)acetamide]
> 8.00 | Cc1cnc(Nc2cc(C)n(C)n2)nc1-c1c[nH]c2c(NC(=O)CN3CC[C@H](Oc4nc(N)nc(N)n4)C3)cccc12 [Example 138, (S)-2-(3-((4,6-diamino-1,3,5-triazin-2-yl)oxy)pyrrolidin-1-yl)-N-(3-(2-((1,5-dimethyl-1H-pyrazol-3-yl)amino)-5-methylpyrimidin-4-yl)-1H-indol-7-yl)acetamide]
> 8.00 | CCNc1cc(O[C@H]2CCN(CC(=O)Nc3cccc4c(-c5nc(Nc6cc(C)n(C)n6)ncc5C)c[nH]c34)C2)ncn1 [Example 142, (S)-N-(3-(2-((1,5-dimethyl-1H-pyrazol-3-yl)amino)-5-methylpyrimidin-4-yl)-1H-indol-7-yl)-2-(3-((6-(ethylamino)pyrimidin-4-yl)oxy)pyrrolidin-1-yl)acetamide]
> 8.00 | CCCCNc1cc(O[C@H]2CCN(CC(=O)Nc3cccc4c(-c5nc(Nc6cc(C)n(C)n6)ncc5C)c[nH]c34)C2)ncn1 [Example 144, (S)-2-(3-((6-(butylamino)pyrimidin-4-yl)oxy)pyrrolidin-1-yl)-N-(3-(2-((1,5-dimethyl-1H-pyrazol-3-yl)amino)-5-methylpyrimidin-4-yl)-1H-indol-7-yl)acetamide]
> 8.00 | Cc1cnc(Nc2cc(C)n(C)n2)nc1-c1c[nH]c2c(NC(=O)CN3CC[C@H](Oc4cc(NCCO)ncn4)C3)cccc12 [Example 145, (S)-N-(3-(2-((1,5-dimethyl-1H-pyrazol-3-yl)amino)-5-methylpyrimidin-4-yl)-1H-indol-7-yl)-2-(3-((6-((2-hydroxyethyl)amino)pyrimidin-4-yl)oxy)pyrrolidin-1-yl)acetamide]
> 8.00 | Cc1cnc(Nc2cc(C)n(C)n2)nc1-c1c[nH]c2c(NC(=O)CN3CC[C@H](Oc4cc(NCCCO)ncn4)C3)cccc12 [Example 146, (S)-N-(3-(2-((1,5-dimethyl-1H-pyrazol-3-yl)amino)-5-methylpyrimidin-4-yl)-1H-indol-7-yl)-2-(3-((6-((3-hydroxypropyl)amino)pyrimidin-4-yl)oxy)pyrrolidin-1-yl)acetamide]
> 8.00 | COCCNc1cc(O[C@H]2CCN(CC(=O)Nc3cccc4c(-c5nc(Nc6cc(C)n(C)n6)ncc5C)c[nH]c34)C2)ncn1 [Example 147, (S)-N-(3-(2-((1,5-dimethyl-1H-pyrazol-3-yl)amino)-5-methylpyrimidin-4-yl)-1H-indol-7-yl)-2-(3-((6-((2-methoxyethyl)amino)pyrimidin-4-yl)oxy)pyrrolidin-1-yl)acetamide]
> 8.00 | Cc1cnc(Nc2cc(C)n(C)n2)nc1-c1c[nH]c2c(NC(=O)CN3CC[C@H](Oc4cc(N(C)C)ncn4)C3)cccc12 [Example 153, (S)-N-(3-(2-((1,5-dimethyl-1H-pyrazol-3-yl)amino)-5-methylpyrimidin-4-yl)-1H-indol-7-yl)-2-(3-((6-(dimethylamino)pyrimidin-4-yl)oxy)pyrrolidin-1-yl)acetamide]
7.00 to 8.00 | CCN(CC)c1cc(O[C@H]2CCN(CC(=O)Nc3cccc4c(-c5nc(Nc6cc(C)n(C)n6)ncc5C)c[nH]c34)C2)ncn1 [Example 155, (S)-2-(3-((6-(diethylamino)pyrimidin-4-yl)oxy)pyrrolidin-1-yl)-N-(3-(2-((1,5-dimethyl-1H-pyrazol-3-yl)amino)-5-methylpyrimidin-4-yl)-1H-indol-7-yl)acetamide]
7.00 to 8.00 | CCCCN(CC)c1cc(O[C@H]2CCN(CC(=O)Nc3cccc4c(-c5nc(Nc6cc(C)n(C)n6)ncc5C)c[nH]c34)C2)ncn1 [Example 157, (S)-2-(3-((6-(butyl(ethyl)amino)pyrimidin-4-yl)oxy)pyrrolidin-1-yl)-N-(3-(2-((1,5-dimethyl-1H-pyrazol-3-yl)amino)-5-methylpyrimidin-4-yl)-1H-indol-7-yl)acetamide]

Reference: US20240025884A1 (Dong-A ST Co., Ltd., priority 2022, published 2024)
